Measurements as given in patent publication US20080292584A1 (priority 2005, published 2008).
Several values for one entry are separate records, joined by “and”; a condition that tells them apart may be missing. Equal values may be shown once. Read-outs that look alike come from different tables or passages of the source.

What was measured:
[1] = target: CYP2C19 (Homo sapiens, UniProt P33261); test: Metabolism of metaxalone by expressed recombinant human CYP2C19 (Example 1); details: for Metaxalone Present Adjusted Individual / Metaxalone Present Adjusted Mean ± SD / Metaxalone Present Raw / Percent of Metabolic Negative Control Individual / Percent of Metabolic Negative Control Mean ± SD: 36 min;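 as to all read-outs here: microsomes with expressed CYP2C19 (10 pmol P450) in Tris buffer with 1% methanol, reaction started by an NADPH regenerating system after 5 min preincubation, 0.5 mL volume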
Sequence of CYP2C19 (P33261 whole entry): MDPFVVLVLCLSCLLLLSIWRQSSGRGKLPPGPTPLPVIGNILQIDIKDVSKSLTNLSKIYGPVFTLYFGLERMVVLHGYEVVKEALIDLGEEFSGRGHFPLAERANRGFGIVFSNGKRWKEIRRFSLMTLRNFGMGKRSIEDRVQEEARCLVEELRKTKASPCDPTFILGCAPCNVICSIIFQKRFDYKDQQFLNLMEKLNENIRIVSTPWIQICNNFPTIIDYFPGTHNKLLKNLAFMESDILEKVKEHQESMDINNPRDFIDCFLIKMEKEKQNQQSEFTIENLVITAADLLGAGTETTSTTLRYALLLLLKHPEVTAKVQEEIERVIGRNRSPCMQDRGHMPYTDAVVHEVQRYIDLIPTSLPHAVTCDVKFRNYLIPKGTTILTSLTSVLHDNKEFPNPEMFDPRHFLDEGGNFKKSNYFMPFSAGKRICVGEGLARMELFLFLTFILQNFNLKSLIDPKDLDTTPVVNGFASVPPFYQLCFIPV
Experimental: Commercially available microsomes from baculovirus-infected insect cells containing singly-expressed recombinant wild-type (*1 allele) human CYP enzymes and cDNA-expressed human cytochrome p450 oxidoreductase [BD SUPERSOMES Enzymes; BD Biosciences Discovery Labware (Woburn, Mass.)] were used.
After a 5-minute pre-incubation, an NADPH regenerating system (NRS) was added to the incubation mixtures to initiate reactions, with a final incubation volume of 0.5 mL. Incubations were continued for 30 minutes, and then terminated, except for those for CYP2C19, which were incubated for 36 minutes prior to termination.
Matrix controls were performed to determine the background signal from the matrix components (microsomes (10 pmol p450), 01N Tris buffer, NRS, and 1% methanol). […] After a 5-minute pre-incubation, 2% sodium bicarbonate solution was added to the incubation mixtures. Incubation was for 30 minutes at a final volume of 0.5 mL. Matrix and metabolic negative controls were terminated by adding an equal volume of methanol. […] Analysis of samples was subsequent to storage at −70° C.

[2] = target: T1, CYP2C8 (Homo sapiens, UniProt P10632); details: both, pH 7.4; for Mean Conc.: 60 min; for % Turnover Mean: microsomes, 1 h
T1 sequence (P10632 1-490): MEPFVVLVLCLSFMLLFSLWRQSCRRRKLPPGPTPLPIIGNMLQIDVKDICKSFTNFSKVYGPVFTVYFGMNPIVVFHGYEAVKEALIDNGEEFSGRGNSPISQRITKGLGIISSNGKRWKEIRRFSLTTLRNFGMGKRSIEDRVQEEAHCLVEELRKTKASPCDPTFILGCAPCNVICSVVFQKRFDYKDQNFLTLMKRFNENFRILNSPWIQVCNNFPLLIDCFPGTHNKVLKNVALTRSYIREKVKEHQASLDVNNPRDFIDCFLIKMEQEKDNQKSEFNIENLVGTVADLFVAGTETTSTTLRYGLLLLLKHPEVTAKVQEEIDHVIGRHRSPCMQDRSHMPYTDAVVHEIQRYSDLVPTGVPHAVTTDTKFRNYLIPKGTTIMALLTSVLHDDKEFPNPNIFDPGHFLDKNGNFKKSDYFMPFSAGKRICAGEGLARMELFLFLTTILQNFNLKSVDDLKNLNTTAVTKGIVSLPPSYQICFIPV
Experimental: Human liver microsomes pooled from 15 individuals (male and female) (Pool HMMC-PL020; CellzDirect, Inc., In Vitro Products and Services Division) were used in some experiments of this study.
% Turnover=100−{[TA(final)]/[mean of TA(0 min)]}×100,
% Inhibition of Turnover=100{1−([TA(0 min)]−[TA(final-inhibitor)])/([TA(0 min)]−[TA(final-no inhibitor)])}.
The inhibitors or vehicle control were incubated with the pooled human liver microsomes (1 mg/mL) and NADPH (1 mM) in 0.1 M phosphate buffer, pH 7.4. […] Incubations were conducted in triplicate and terminated by addition of organic solvent. Samples were extracted and analyzed by LC-MS/MS as described above.

[3] = target: CYP2E1 (Homo sapiens, UniProt P05181); test: Induction/inhibition of CYP2E1 activity in cryopreserved human hepatocytes (chlorzoxazone)
Sequence of CYP2E1 (P05181 whole entry): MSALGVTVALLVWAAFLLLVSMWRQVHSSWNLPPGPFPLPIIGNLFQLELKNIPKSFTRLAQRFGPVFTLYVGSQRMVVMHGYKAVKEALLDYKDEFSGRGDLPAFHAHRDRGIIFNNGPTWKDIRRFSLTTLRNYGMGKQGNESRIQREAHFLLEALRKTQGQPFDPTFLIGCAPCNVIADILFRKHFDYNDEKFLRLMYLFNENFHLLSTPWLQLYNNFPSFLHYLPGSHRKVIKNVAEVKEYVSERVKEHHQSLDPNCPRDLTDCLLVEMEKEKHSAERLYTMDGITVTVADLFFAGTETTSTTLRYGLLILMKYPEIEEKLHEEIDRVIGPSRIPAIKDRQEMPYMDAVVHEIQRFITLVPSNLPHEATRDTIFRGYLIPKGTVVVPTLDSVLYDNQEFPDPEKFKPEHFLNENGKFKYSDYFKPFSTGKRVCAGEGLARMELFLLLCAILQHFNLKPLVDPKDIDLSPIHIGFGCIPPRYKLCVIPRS
Description: Hepatocytes from three human donors were obtained from a cryopreserved hepatocyte bank (In Vitro Technologies, Inc., USA). After thawing, viable hepatocytes were transferred to collagen-coated 48-well plates for attachment in plating medium (DMEM stock (Dulbecco's modified Eagle's medium, supplemented with bovine serum albumin, fructose, N-(2-hydroxyethyl)piperazine-N′-(2-ethanesulfonate) (HEPES), and sodium bicarbonate), supplemented with antibiotics, bovine serum, hydrocortisone, insulin and minimum essential medium (MEM) nonessential amino acids). After attachment to the collagen matrix, plating medium was replaced with sandwich medium (plating medium supplemented with VITROGEN) and incubated until use.
The supplemented KHB was replaced with 150 μL supplemented KHB containing the appropriate isoform-selective substrate and incubated for 4 hrs prior to termination by adding 150 μL ice-cold methanol, except for the CYP2C8 incubations which were terminated by adding 150 μL acetonitrile.
All substrates were dissolved in acetonitrile.
Replicate trials and controls were performed. […] Additionally, reference control samples were included to evaluate inducibility of CYP2B6, CYP2C9, and CYP2C19 in the test system.
Mean specific activity values with associated p-values≦0.05 were deemed to be statistically significant.

[4] = Metaxalone turnover in pooled human liver microsomes without inhibitor (LC-MS/MS); details: for % Turnover Mean / Mean Conc. / % Turnover / Conc. / Mean metaxalone disappearance: 1 mg/mL microsomal protein; for % Turnover Mean / Mean Conc. / % Turnover / Conc.: 60 min, no inhibitor; for % Turnover / Conc.: single replicates
Experimental: Stocks were diluted daily in the appropriate buffers such that the final organic solvent concentration was <1%.
The reactions, in 0.1 M phosphate buffer, pH 7.4, were initiated by addition of 1 mM NADPH. Negative controls (no NADPH and heat-treated microsomes) were included to account for any non-enzymatic or non-NADPH dependent reactions. The reactions were terminated at the appropriate time points by addition of 1 volume (relative to total reaction volume) of methanol. The samples were centrifuged at approximately 3000 rpm and the clear supernatant was transferred to a clean tube and analyzed by the LC-MS/MS method described above.

[5] = target: T1, CYP2C8; test: Inhibition of CYP2C8 activity in pooled human liver microsomes (paclitaxel 5 μM to 6-hydroxy paclitaxel); format: in vitro ADME
Experimental: All other incubations were for 30 minutes.
Four replicates were performed.
Two replicates were performed.

Structure (SMILES): Cc1cc(C)cc(OCC2CNC(=O)O2)c1 (stereo not shown) [metaxalone, 5-[(3,5-dimethylphenoxy)methyl]-2-oxazolidinone]
- mean disappearance of metaxalone ([1]; 0.5 μM metaxalone): 6.6%
- Metaxalone Present Adjusted Individual ([1]; metaxalone 0.5 μM): 0.335 µM and 0.344 µM and 0.356 µM
- Metaxalone Present Adjusted Mean ± SD ([1]; metaxalone 0.5 μM): 0.345 ± 0.0104 µM
- Metaxalone Present Raw ([1]; metaxalone 0.5 μM): 0.1677 µM and 0.1718 µM and 0.1781 µM
- Percent of Metabolic Negative Control Individual ([1]; metaxalone 0.5 μM): 90.8% and 93.0% and 96.4%
- Percent of Metabolic Negative Control Mean ± SD ([1]; metaxalone 0.5 μM): 93.4 ± 2.82%
- Metaxalone Present Adjusted Individual ([1]; metaxalone 2.5 μM): 1.34 μM (2×) and 1.35 μM
- Metaxalone Present Adjusted Mean ± SD ([1]; metaxalone 2.5 μM): 1.34 ± 0.00561 µM
- Metaxalone Present Raw ([1]; metaxalone 2.5 μM): 0.6722 µM and 0.6725 µM and 0.6675 µM
- Percent of Metabolic Negative Control Individual ([1]; metaxalone 2.5 μM): 96.7% (2×) and 96.0%
- Percent of Metabolic Negative Control Mean ± SD ([1]; metaxalone 2.5 μM): 96.5 ± 0.404%
- Metaxalone Present Adjusted Individual ([1]; metaxalone 25 μM): 18.7 μM (2×) and 18.5 μM
- Metaxalone Present Adjusted Mean ± SD ([1]; metaxalone 25 μM): 18.6 ± 0.120 µM
- Metaxalone Present Raw ([1]; metaxalone 25 μM): 9.345 µM and 9.359 µM and 9.249 µM
- Percent of Metabolic Negative Control Individual ([1]; metaxalone 25 μM): 92.9% and 93.0% and 91.9%
- Percent of Metabolic Negative Control Mean ± SD ([1]; metaxalone 25 μM): 92.6 ± 0.597%
- Mean Conc. ([2]; 0.75 μM): 0.719 µM
- Mean Conc. ([2]; 7.5 μM): 8.19 µM
- % Turnover Mean ([2]; 0.75 μM): 6.78%
- % Turnover Mean ([2]; 7.5 μM): 3.77%
- Inducer/Inhibitor ([3]; CYP isozyme 2E1, summary of studies): 0
- Specific Activity Individual ([3]; Donor 1, Metaxalone 0.4 μM): 2.58 pmol/min/million cells and 2.66 pmol/min/million cells and 2.19 pmol/min/million cells
- Specific Activity Mean ± SD ([3]; Donor 1, Metaxalone 0.4 μM): 2.47 ± 0.249 pmol/min/million cells
- Percent of VC ([3]; Donor 1, Metaxalone 4 μM): 104%
- Specific Activity Individual ([3]; Donor 1, Metaxalone 4 μM): 2.57 pmol/min/million cells and 2.47 pmol/min/million cells and 2.87 pmol/min/million cells
- Specific Activity Mean ± SD ([3]; Donor 1, Metaxalone 4 μM): 2.64 ± 0.210 pmol/min/million cells
- Percent of VC ([3]; Donor 1, Metaxalone 40 μM): 104%
- Specific Activity Individual ([3]; Donor 1, Metaxalone 40 μM): 2.54 pmol/min/million cells and 2.66 pmol/min/million cells and 2.69 pmol/min/million cells
- Specific Activity Mean ± SD ([3]; Donor 1, Metaxalone 40 μM): 2.63 ± 0.0782 pmol/min/million cells
- Percent of VC ([3]; Donor 2, Metaxalone 0.4 μM): 104%
- Specific Activity Individual ([3]; Donor 2, Metaxalone 0.4 μM): 0.631 pmol/min/million cells and 0.683 pmol/min/million cells and 0.765 pmol/min/million cells
- Specific Activity Mean ± SD ([3]; Donor 2, Metaxalone 0.4 μM): 0.693 ± 0.0673 pmol/min/million cells
- Percent of VC ([3]; Donor 2, Metaxalone 4 μM): 89.6%
- Specific Activity Individual ([3]; Donor 2, Metaxalone 4 μM): 0.564 pmol/min/million cells and 0.605 pmol/min/million cells and 0.626 pmol/min/million cells
- Specific Activity Mean ± SD ([3]; Donor 2, Metaxalone 4 μM): 0.598 ± 0.0317 pmol/min/million cells
- Percent of VC ([3]; Donor 2, Metaxalone 40 μM): 99.6%
- Specific Activity Individual ([3]; Donor 2, Metaxalone 40 μM): 0.558 pmol/min/million cells and 0.633 pmol/min/million cells and 0.804 pmol/min/million cells
- Specific Activity Mean ± SD ([3]; Donor 2, Metaxalone 40 μM): 0.665 ± 0.126 pmol/min/million cells
- Percent of VC ([3]; Donor 3, Metaxalone 0.4 μM): 90.7%
- Specific Activity Individual ([3]; Donor 3, Metaxalone 0.4 μM): 0.449 pmol/min/million cells and 0.474 pmol/min/million cells and 0.462 pmol/min/million cells
- Specific Activity Mean ± SD ([3]; Donor 3, Metaxalone 0.4 μM): 0.462 ± 0.0125 pmol/min/million cells
- Percent of VC ([3]; Donor 3, Metaxalone 4 μM): 87.7%
- Specific Activity Individual ([3]; Donor 3, Metaxalone 4 μM): 0.468 pmol/min/million cells and 0.464 pmol/min/million cells and 0.406 pmol/min/million cells
- Specific Activity Mean ± SD ([3]; Donor 3, Metaxalone 4 μM): 0.446 ± 0.0348 pmol/min/million cells
- Percent of VC ([3]; Donor 3, Metaxalone 40 μM): 93.9%
- Specific Activity Individual ([3]; Donor 3, Metaxalone 40 μM): 0.470 pmol/min/million cells and 0.495 pmol/min/million cells and 0.469 pmol/min/million cells
- Specific Activity Mean ± SD ([3]; Donor 3, Metaxalone 40 μM): 0.478 ± 0.0146 pmol/min/million cells
- effects on CYP activity ([3]; any of the tested concentrations (0.4, 4.0, 40 μM)): no significant effects
- % Turnover Mean ([4]; 0.75 μM metaxalone): 29.8%
- Mean Conc. ([4]; 0.75 μM metaxalone): 0.542 µM
- % Turnover ([4]; 0.75 μM metaxalone): 30.5% and 27.3% and 31.5%
- Conc. ([4]; 0.75 μM metaxalone): 0.536 µM and 0.561 µM and 0.529 µM
- Mean metaxalone disappearance ([4]; 0.75 μM metaxalone, 60 minutes): 29.8±1.3%
- % Turnover Mean ([4]; 7.5 μM metaxalone): 24.6%
- Mean Conc. ([4]; 7.5 μM metaxalone): 6.42 µM
- % Turnover ([4]; 7.5 μM metaxalone): 24.8% and 23.9% and 25.1%
- Conc. ([4]; 7.5 μM metaxalone): 6.40 µM and 6.48 µM and 6.38 µM
- Mean metaxalone disappearance ([4]; 7.5 μM metaxalone, 60 minutes): 24.6±0.3%
- maximum turnover ([4]; 60 minutes, 1 mg/mL protein, NADPH-dependent): 38.0%
- inhibition of CYP activity at a statistically significant level ([5]; 0.3-100 μM metaxalone): no tested concentration of metaxalone inhibited activity
- Inhibitor ([5]; CYP isozyme 2C8, summary of studies): 0
- Percent of VC ([5]; metaxalone 0.3 μM): 92.7%
- Specific Activity Individual ([5]; metaxalone 0.3 μM): 19.3 pmol/min/mg protein and 15.2 pmol/min/mg protein and 16.1 pmol/min/mg protein
- Specific Activity Mean ± SD ([5]; metaxalone 0.3 μM): 16.8 ± 2.18 pmol/min/mg protein
- Percent of VC ([5]; metaxalone 1 μM): 103%
- Specific Activity Individual ([5]; metaxalone 1 μM): 18.6 pmol/min/mg protein and 18.3 pmol/min/mg protein and 19.1 pmol/min/mg protein
- Specific Activity Mean ± SD ([5]; metaxalone 1 μM): 18.7 ± 0.406 pmol/min/mg protein
- Percent of VC ([5]; metaxalone 3 μM): 109%
- Specific Activity Individual ([5]; metaxalone 3 μM): 20.0 pmol/min/mg protein and 19.9 pmol/min/mg protein and 19.6 pmol/min/mg protein
- Specific Activity Mean ± SD ([5]; metaxalone 3 μM): 19.9 ± 0.232 pmol/min/mg protein
- Percent of VC ([5]; metaxalone 30 μM): 101%
- Specific Activity Individual ([5]; metaxalone 30 μM): 19.9 pmol/min/mg protein and 18.3 pmol/min/mg protein and 16.9 pmol/min/mg protein
- Specific Activity Mean ± SD ([5]; metaxalone 30 μM): 18.4 ± 1.52 pmol/min/mg protein
- Percent of VC ([5]; metaxalone 100 μM): 97.8%
- Specific Activity Individual ([5]; metaxalone 100 μM): 17.6 pmol/min/mg protein and 20.6 pmol/min/mg protein and 15.1 pmol/min/mg protein
- Specific Activity Mean ± SD ([5]; metaxalone 100 μM): 17.8 ± 2.76 pmol/min/mg protein
